Data: patent US10077239B2, “Crystalline forms of a hepatitis B antiviral agent” (NOVIRA THERAPEUTICS, INC, priority 2015, dated 2018)
Entries after “also recorded” stand apart in the source; their conditions may differ. Like-named read-outs stand apart in the source and are kept apart here.

How the values were obtained:
Format in all cases: physicochemical
[1] = Solubility of the crystalline forms
pH solubility profile = assay: pH solubility profile
[2] = Hygroscopicity by dynamic vapor sorption (DVS); settings: for Hydrophilicity / hygroscopicity rating from DVS / Hysteresis between initial and final state, DVS: 37° C.; for Water (moisture) uptake, DVS: from 0% to 100% RH at 37° C.
Method: DVS The temperature and RH are pre-set according to the initial temperature and RH. Method at 37° C.: • Equilibrating 20 min at 50% • Set from 50% to 0% • Equilibrating 20 min at 0% RH • Set from 0% to 100% by step of 10% RH (50% RH per hour) • 3 hours at 100% RH • From 100% RH to 0% RH by step of 10% RH (−50% RH per hour) • Equilibrating 20 min at 0% RH • Set from 0% to 50% • Equilibrating 20 min at 50% RH Particle Size Distribution (Malvern)

[3] = Thermal analysis (DSC/TGA/hot stage): decomposition
Method: Thermal Analysis (DSC/TGA/Hot Stage) An accurate amount of compound (mg scale) is set up in 40 μL Al crucible with perforated lids. The heating rate is 20° C./min in a nitrogen gas flow. The heating ranged from 30 to 400° C.

[4] = Stability under simulated storage conditions: XRPD under temperature and relative humidity; settings: for XRPD under RH: phase transition: 10% to 80% RH at 25° C.
Method: Stability Under Simulated Storage Conditions: XRPD The stability of crystalline Forms I and XVI was characterized by XRPD under temperature and relative humidity conditions that stimulate potential storage conditions. XRPD XRPD was performed on a PHILIPS PANalytical, X'Pert Pro. diffractometer The experimental conditions are the following: • Configuration Bragg-Brentano: θ−θ • Source: Cu with Kα1 at λ=1.5406 Å. • The power supply works at 45 kV and 40 mA. • Detector: PSD X'Celerator in scanning mode • Sample temperature: room temperature • Angular variation: from 2θ=3° to 45° • Step size [° 2θ]: 0.008 • Scan step time (in s): 13 39 • Duration: 20 min according to the diffraction intensity A few mg of sample were prepared on a silicon plate without any special treatment other than a slight pressure to obtain a flat and homogeneous surface for reproducible and repeatable results.

[5] = Particle size distribution (Malvern laser diffraction); settings: for Particle size D10 after sonication / Particle size D50 after sonication / Particle size D90 after sonication: after ultrasound treatment (40 seconds); for Particle size D10 / Particle size D50 / Particle size D90: without ultrasound treatment
Method: • Equilibrating 20 min at 50% • Set from 50% to 0% • Equilibrating 20 min at 0% RH • Set from 0% to 100% by step of 10% RH (50% RH per hour) • 3 hours at 100% RH • From 100% RH to 0% RH by step of 10% RH (−50% RH per hour) • Equilibrating 20 min at 0% RH • Set from 0% to 50% • Equilibrating 20 min at 50% RH Particle Size Distribution (Malvern) A total of 3 measurements by batch were made to ensure repeatable and reproducible results. • Dispersant: Silicon oil. A good dispersion is observed in this media and Compound (1) is not soluble in silicon oil. • Stirring: 2000 rpm • lens: 300RF • Analysis model: polydisperse • Presentation code: 3OAE • Number of measurement sweeps: 5000 • Density: 1.000 g·cm^3 • With or without stage of ultrasound

[6] = Stability under simulated storage conditions: XRPD under temperature and relative humidity; settings: for XRPD under temperature: phase transition: temperature increased from 25° C. to 160° C.

SMILES | pH solubility profile (pH solubility profile) | Hydrophilicity / hygroscopicity rating from DVS [2] | Hysteresis between initial and final state, DVS [2] | Water (moisture) uptake, DVS [2] | Decomposition (degradation) temperature [3] | XRPD under RH: phase transition [4] | Particle size D10 after sonication [5] | Particle size D50 after sonication [5] | Particle size D90 after sonication [5] | Particle size D10 [5] | Particle size D50 [5] | Particle size D90 [5] | XRPD under temperature: phase transition [6] | also measured
O=C(Nc1cc(F)c(F)c(F)c1)c1ccc(F)c(S(=O)(=O)N2CCC(O)CC2)c1 [Compound (1), 4-fluoro-3-((4-hydroxypiperidin-1-yl)sulfonyl)-N-(3,4,5-trifluorophenyl)benzamide] | – | – | – | – | – | – | – | – | – | – | – | – | – | Solubility in silicon oil ([1]; silicon oil, dispersant of the particle size measurement): not soluble
O=C(Nc1cc(F)c(F)c(F)c1)c1ccc(F)c(S(=O)(=O)N2CCC(O)CC2)c1 [Form I, 4-fluoro-3-((4-hydroxypiperidin-1-yl)sulfonyl)-N-(3,4,5-trifluorophenyl)benzamide] | Slightly soluble | slightly hydrophilic; also recorded: low hydrophilicity | No hysteresis | 1.5% | above 300 °C | No transition phase from 10% | 4.7 μm | 14.2 μm | 66.9 μm | 5.8 μm | 69.1 μm | 342.6 μm | sensitive to the temperature | solubility ([1]; organic solvent or mixture, MTBE, 25° C., read-out: Solubility in MTBE): < 2000 µg/mL; solubility ([1]; water, 25° C., read-out: Solubility in water): < 2000 µg/mL; Hydrophilicity / hygroscopicity rating from DVS ([2]; listed as FI): 100% ⋄ slightly hydrophilic.; Decomposition (degradation) temperature ([3]; listed as FI): Decomposition >300 °C; Impact of relative humidity on the crystalline phase (XRPD) ([4]; RH 7-30-90% at 25 or 40° C.): no impact; Particle size D10 after sonication ([5]; listed as FI): D10 = 4.7 μm; Particle size D50 after sonication ([5]; listed as FI): D50 = 14.2 μm; Particle size D90 after sonication ([5]; listed as FI): D90 = 66.9 μm; Temperature from which the phase transition starts (XRPD) ([6]; heating from 25° C. to 160° C.): 100 °C; Temperature at which the phase transition is complete (XRPD) ([6]; heating from 25° C. to 160° C., not reversible): 160 °C; XRPD under temperature: phase transition ([6]; listed as FI): Complete transition towards
O=C(Nc1cc(F)c(F)c(F)c1)c1ccc(F)c(S(=O)(=O)N2CCC(O)CC2)c1 [Form XVI, 4-fluoro-3-((4-hydroxypiperidin-1-yl)sulfonyl)-N-(3,4,5-trifluorophenyl)benzamide] | Slightly soluble | slightly hydrophilic; also recorded: low hydrophilicity | No hysteresis | 0.8% | above 300 °C | No transition phase from 10% | 4.2 μm | 20.0 μm | 37.5 μm | 9.8 μm | 23.7 μm | 45.8 μm | no phase transition | Solubility in MTBE ([1]; MTBE, 25° C.): In MTBE <2 g/L at 25 °C; Solubility in water ([1]; water, 25° C.): In Water <2 g/L at 25 °C; Hydrophilicity / hygroscopicity rating from DVS ([2]; listed as FXVI): 100% ⋄ slightly hydrophilic.; Water (moisture) uptake, DVS ([2]; listed as FXVI): Uptake of 0.8% from 0 to; Decomposition (degradation) temperature ([3]; listed as FXVI): Decomposition >300 °C; Impact of relative humidity on the crystalline phase (XRPD) ([4]; RH 7-30-90% at 25 or 45° C.): no impact; Stability of the crystalline form with respect to temperature and relative humidity ([4]; XRPD monitoring at higher temperatures and varying humidity): high stability; also recorded: maintains its crystallinity; also recorded: highly stable; Particle size D10 after sonication ([5]; listed as FXVI): D10 = 4.2 μm; Particle size D50 after sonication ([5]; listed as FXVI): D50 = 20.0 μm; Particle size D90 after sonication ([5]; listed as FXVI): D90 = 37.5 μm; XRPD under temperature: phase transition ([6]; listed as FXVI): No transition phase until
